In paper PMC8657723, “Novel Pituitary Actions of TAC4 Gene Products in Teleost” (International Journal of Molecular Sciences, 2021):
“Also recorded” adds a separate entry of the source. Ends that are not written are not given here.

Key:
mammals = tested on: mammals; design: method as in PMID 18337115; details: cited from earlier work
rats = tested on: rats; design: method as in 2 sources, ref 26, 51 = [26]; PMID 19854230; doi:10.1016/j.peptides.2009.10.013; 26. Yang Y. Dong S. Effects of Endokinin A/B and Endokinin C/D on the modulation of pain in mice Peptides 2010 31 94 100 10.1016/j.peptides.2009.10.013 19854230 || [51]; PMID 12524318; doi:10.1016/S0006-3495(03)74885-1; 51. Grace R.C. Chandrashekar I.R. Cowsik S.M. Solution structure of the tachyk-inin peptide eledoisin Biophys. J. 2003 84 655 664 10.1016/S0006-3495(03)74885-1 12524318 PMC1302646 ||| ref 26, 53, 54 = [26]; PMID 19854230; doi:10.1016/j.peptides.2009.10.013; 26. Yang Y. Dong S. Effects of Endokinin A/B and Endokinin C/D on the modulation of pain in mice Peptides 2010 31 94 100 10.1016/j.peptides.2009.10.013 19854230 || [53]; PMID 17655832; doi:10.1016/j.brainres.2007.05.062; 53. Naono R. Nakayama T. Ikeda T. Matsushima O. Nishimori T. Leucine at the carboxyl-terminal of endokinins C and D contributes to elicitation of the antagonistic effect on substance P in rat pain pro || [54]; PMID 17101218; doi:10.1016/j.neulet.2006.09.024; 54. Yoshioka D. Takebuchi F. Nishimori T. Naono R. Ikeda T. Nakayama T. Intrathecal administration of the common carboxyl-terminal decapeptide in end-okinin A and endokinin B evokes scratching behavio; details: cited from earlier work; for pain-related behaviors: central administration, scratching, paw withdrawal, thermal hyperalgesia; for effect on SP- or EKA/B-induced pain-related behaviors: simultaneous treatment
six NKR isoforms = experiment: Functional activation of the six grass carp NKR isoforms, NFAT-Luc reporter in HEK293T cells; type: cell-based, grass carp (Ctenopharyngodon idellus); details: 24 h
Method: To clarify the receptor selectivity of TAC4 gene products, a transfection experiment was conducted in HEK293T cells, and the fluorescent signal was detected by the firefly luciferase reporter gene detection kit. Firstly, the cDNA sequences of neurokinin receptor 1 isoforms a (NK1Ra), neurokinin receptor 1 isoforms b (NK1Rb), NK2R, neurokinin receptor 3 isoforms a1 (NK3Ra1), neurokinin receptor 3 isoforms a2 (NK3Ra2), and neurokinin receptor 3 isoforms b (NK3Rb) were isolated from grass carp pituitary, and the coding region of the six receptors were then subcloned into the eukaryotic expression vector pcDNA3.1. Secondly, the HEK293T cells were co-transfected with the plasmids of NFAT-Luc (Nuclear factor of activated T cells-luciferase), green fluorescent protein (GFP), and each pcDNA3.1-NKRs by using Lipofectamine 3000 (Thermo Fisher). The transfected HEK293T cells were incubated with various concentration HK-1 (1–10,000 nM), HK-2 (1–10,000 nM), or HK1-V7F (1–10,000 nM) for 24 h, respectively. Finally, the transfected cells were collected to detect the luciferase value according to the instructions of the firefly luciferase reporter gene detection kit.
To clarify the receptor selectivity of HK1 and HK2 for the six NKRs, HEK-293T cell lines were established to stably express NK1Ra, NK1Rb, NK2R, NK3Rb, NK3Ra1, or NK3Ra2 were established, respectively. The cells were then used for transfection study with NFAT-Luc vectors, which was allowed for functional evaluation of the activation status of Ca^2+-dependent pathway.
Figure 2 Receptor selectivity of HK1, HK2, and HK1-V7F. The nuclear factor of activated T-cells (NFAT)-Luc reporter together with NK1Ra, NK1Rb, NK2R, NK3Rb, NK3Ra1, or NK3Ra2, were transiently transfected into HEK-293 cells, respectively. The cells were incubated with increasing levels of grass carp HK1, HK2, or HK1-V7F (0.1–1000 nM), respectively. The luciferase activities were normalized against renilla expression in the same sample to adjust for potential variations in transfection efficiency. Each point is determined quadruplicate and is given as a mean ± SEM. The groups denoted by different letters represent significant differences at p-value < 0.05 (ANOVA followed Dunnett’s test).

[1] = tested on: grass carp pituitary cells; experiment: RT-qPCR of pituitary gene mRNA expression after peptide treatment of grass carp pituitary cells; type: cell-based, grass carp (Ctenopharyngodon idellus); details: 0.1–1000 nM, 24 h
Text: To further confirm the pituitary actions of HKs in grass carp, trypsin digestion method was used to prepare for grass carp primary cultured pituitary cells. […] After drug treatment, total RNA was extracted from adherent cells by Trizol, and then subjected to reverse transcription using HifairTM III 1st Strand cDNA Synthesis Kit (Yeasen, Shanghai, China). In the present study, β-actin was used as the internal reference gene, and then, the transcript levels of PRL, SLα, CART2, UTS1, and NMB1 were detected by using a ABI 7500 real-time PCR system (see Supplementary Table S2 for primer sequences and PCR condition). In addition, the plasmid DNA containing the gene coding sequence was serially diluted as a standard for data calibration.
In this study, RT-qPCR was used to detect mRNA expression for TAC4, NKRs, PRL, SLα, CART2, UTS1, SN2, and NMB1. In the ABI7500 software, the dynamic mRNA concentration detection range of the double standard curve is 10^5, and the correlation coefficient is >0.95. […] In the transfection experiment, the detected firefly luciferase activity was routinely normalized with the GFP activity expressed in the same well, expressed as the luciferin activity ratio Luc ratio. The data from four parallel experiments was presented as mean ± SEM in the figure. All the data were analyzed by ANOVA, and then subjected to Dunnett’s test in GraphPad Prism 7.0. The significant differences between groups were indicated by p < 0.05.
Figure 5 TAC4 gene products (HK1 and HK2) induced PRL (A) and SLα (B) mRNA expression in grass carp pituitary cells. Time course of grass carp HK1 (1 μM) and HK2 (1 μM) on PRL (A) and SLα (B) mRNA expression in grass carp pituitary cells. Dose-dependence of 24-h treatment with increasing levels of HK1 and HK2 (0.1–1000 nM) on PRL (A) and SLα (B) mRNA expression in grass carp pituitary cells. After drug treatment, the total RNA of the cells was extracted by the Trizol method, and the expression of various genes was detected by RT-PCR. Data presented were expressed as mean ± SEM, and the differences between groups were significant at p-value < 0.05 by labeling diverse letters.
Figure 6 TAC4 gene products (HK1 and HK2) induced CART2, NMB1, and UTS1 mRNA expression in grass carp pituitary cells. Time course of grass carp HK1 (1 μM) and HK2 (1 μM) on CART2 (A), NMB1 (B), and UTS1 (C) mRNA expression in grass carp pituitary cells. Dose-dependence of 24-h treatment with increasing levels of HK1 or HK2 (0.1–1000 nM) on CART2 (A), NMB1 (B), and UTS1 (C) mRNA expression in grass carp pituitary cells. After drug treatment, the total RNA of the cells was extracted by the Trizol method, and the expression of various genes were detected by RT-PCR. Data presented were expressed as mean ± SEM, and the differences between groups were significant at p-value < 0.05 by labeling diverse letters.
Figure 9 Phe to Val mutation in FXGLM motif in PRL, SLα, and UTS1 regulation by HK2 in grass carp pituitary cells. (A) Effects of HK1-V7F on PRL, SLα, and UTS1 mRNA expression in grass carp pituitary cells. In this experiment, grass carp pituitary cells were incubated for 24 h with increasing levels of HK1-V7F (0.1–1000 nM). (B) Suppressed effects of HK1 on HK2-induced PRL, SLα, and UTS1 mRNA expression in grass carp pituitary cells. Pituitary cells were challenged for 24 h with grass carp HK2 (0.1 µM) in the presence or absence of HK1 (1 µM) and HK1 (10 µM). In these experiment, Trizol method was used to extract total cell RNA, and RT-PCR was used to detect PRL, SLα, and UTS1 mRNA expression. Data presented are expressed as mean ± SEM, and the differences between groups were significant at p-value < 0.05 by labeling diverse letters.

carp pituitary cells = details: cited from earlier work; for LHβ secretion / PRL and SLα transcriptional levels / PRL secretion / SLα secretion: pituitary cells of carp
Text: In mammals, the tachykinin (TAC) family includes three members, namely tachykinin 1 (TAC1), tachykinin 3 (TAC3) (tachykinin 2 (TAC2) in rodents), and TAC4, respectively. Among them, TAC1 gene encodes substance P (SP) and neurokinin A (NKA). SP is known to be involved in the regulation of pain control/injury, neurogenicinflammation and obesity with mammals. Compared with mammals, teleost have undergone an additional genome duplication during evolution, which is called fish-specific genome duplication (FSGD) or the 3R hypothesis. […] The resear ... || In mammals, many studies have focused on the actions of hemokinin on immunological regulation and inflammation. However, little information is available about its endocrinology function. […] Similar resu ... || (+ 1 further places)

carp NK2R = tested on: carp NK2R; design: method as in PMID 28323939; details: cited from earlier work
Text: In mammals, the biological action of tachykinins is mediated by three GPCRs, namely NK1R, NK2R, and NK3R, which are stimulated preferentially by SP, NKA, and NKB, respectively. […] In the present study, due to the third round whole-genome duplication, 6 NKRs were detected in grass carp, namely NK1Ra, NK1Rb, NK2R, NK3Ra1, NK3Ra2, and NK3Rb, respectively. Based on the ...

[2] = tested on: sexually mature female zebrafish; details: intraperitoneal injection; cited from earlier work
Text: In mammals, TAC3 encodes neurokinin B (NKB), is known to be involved in the regulation of smooth muscles of the gastrointestinal tract, secretion of intestinal epithelial fluid, vasodilation, and stimulating sperm motility. […] The resear ...

[3] = design: method as in PMID 20233609, PMID 23317790; details: cited from earlier work

CRH: corticortropin-releasing hormone (SEEPPISLDLTFHLLREVLEMARAEQLAQQAHSNRKLMEII; ends and bridges not checked; UniProt P06850 154-194, looked up)
food intake and energy expenditure (mammals): reduce food intake and induce energy expenditure

EKA/B: endokinins A and B, human TAC4 products (GKASQFFGLM; ends and bridges not checked; UniProt Q86UU9 58-67, looked up)
pain-related behaviors (rats): induce pain-related behaviors

TPGLQQFFGLM-NH2 [HK1-V7F, Val to Phe mutant of HK1, …-NH2]
ED50, NFAT-Luc luciferase activity, NKR isoforms (in words) (six NKR isoforms; HEK-293T expressing each NKR): nanomolar dose range
activation of the six NKR isoforms (in words) (six NKR isoforms; NFAT-Luc luciferase, HEK293T, NK1Ra, NK1Rb, NK2R, NK3Ra1, NK3Ra2, NK3Rb): notably enhanced
PRL mRNA expression, HK1-V7F dose-response [1]: levels comparable to that induced by HK2
SLα mRNA expression, HK1-V7F dose-response [1]: levels comparable to that induced by HK2; also recorded: markedly enhanced to the levels for HK2
UTS1 mRNA expression, HK1-V7F dose-response [1]: levels comparable to that induced by HK2

endokinin C (KKAYQLEHTFQGLL; ends and bridges not checked; UniProt Q86UU9 82-95, looked up) [EKC, human TAC4 product with FXGLL motif]
effect on SP- or EKA/B-induced pain-related behaviors (rats): can be blocked

endokinin D [EKD]
effect on SP- or EKA/B-induced pain-related behaviors (rats): can be blocked

neurokinin A (HKTDSFVGLM; ends and bridges not checked; UniProt P20366 98-107, looked up) [NKA, TAC1 gene product]
LHβ secretion (carp pituitary cells): can trigger the secretion
PRL and SLα transcriptional levels (carp pituitary cells): increase in parallel
PRL secretion (carp pituitary cells): can trigger the secretion
SLα secretion (carp pituitary cells): can trigger the secretion
activation of carp NK2R (carp NK2R): comparable efficacy and potency

neurokinin B (DMHDFFVGLM; ends and bridges not checked; UniProt Q9UHF0 81-90, looked up) [NKB, TAC3 gene product]
pituitary PRL and SLα synthesis and secretion (carp pituitary cells): significantly induce pituitary PRL and SLα synthesis and secretion
PRL and SLα secretion and mRNA synthesis (carp pituitary cells; grass carp pituitary cells): promote PRL and SLα secretion and mRNA synthesis
UTS1, CART2 and NMB1 mRNA expression (carp pituitary cells; grass carp pituitary cells): could stimulate
LHβ secretion in zebrafish [2]: induce LHβ secretion

neurokinin B-related peptide [NKBRP]
PRL and SLα secretion and mRNA synthesis (carp pituitary cells; grass carp pituitary cells): promote PRL and SLα secretion and mRNA synthesis
LHβ secretion in zebrafish [2]: induce LHβ secretion

neuromedin B [NMB]
feeding and gastric peristalsis [3]: inhibit feeding and gastric peristalsis

substance P (RPKPQQFFGLM; ends and bridges not checked; UniProt P20366 58-68, looked up) [SP, TAC1 gene product]
LHβ release, short-term treatment (carp pituitary cells; 3 h): induced the release of LHβ
LHβ mRNA expression, prolonged treatment (carp pituitary cells; 24 h): inhibited LHβ mRNA expression
LHβ secretion (carp pituitary cells): can trigger the secretion
PRL and SLα transcriptional levels (carp pituitary cells): increase in parallel
PRL secretion (carp pituitary cells): can trigger the secretion
SLα secretion (carp pituitary cells): can trigger the secretion
activation of carp NK2R (carp NK2R): comparable efficacy and potency
pain-related behaviors (rats): induce pain-related behaviors
